Laboratory results as given in patent US10538516B2, “Oxadiazole derivative and pharmaceutical containing same” (National Center for Geriatrics and Gerontology, priority 2015, dated 2020).
Where a name gives a salt, the structure may show the parent alone. Read-outs that look alike come from different tables or passages of the source.

Molecular target: T1, GAβ-dependent amyloid fibril formation (Human Aβ1-40 + GM1-containing liposome) (Homo sapiens, UniProt P05067)
T1 construct: Human Aβ1-40 (cat. #4307-v, prepared by Peptide Institute); purchased Peptide Institute 4307-v
T1 sequence (P05067 672-711 limits assumed): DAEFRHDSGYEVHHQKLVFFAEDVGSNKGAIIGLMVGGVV
Experiment: Thioflavin T (ThT) assay of GAβ-dependent amyloid fibril formation (Aβ1-40 with GM1-containing liposome)
Type: biochemical
Method: <3. Evaluation of the Compounds Based on the Inhibitory Activity Against Amyloid Fibril Formation in Thioflabin T (ThT) Assay>
Inhibitory activity against GAβ-dependent amyloid fibril formation of the above compounds 1 to 133 and 142 to 267 were evaluated in ThT assay.
(1) Preparation of Aβ Solution
Human Aβ1-40 (cat. #4307-v, prepared by Peptide Institute) was dissolved in a 0.02% ammonia solution (400 μM), and the mixture was treated in an ultracentrifuge (S110AT rotor, Hitachi) at 100,000 rpm for 3 hours. Approximately two-thirds of the upper layer of the supernatant was recovered and protein concentration was measured. The Aβ solution was aliquoted and stored at −80° C. until use, was melted immediately before use, and was diluted to 75 μM using phosphate buffer (PBS: cat. #10010, manufactured by Life Technologies).
(2) Preparation of GM1-Containing Liposome
Using a mixed solution of chloroform/methanol (1:1) as a solvent, a mixed solution of 100 mM each of cholesterol and sphingomyelin (both manufactured by Sigma-Aldrich) was prepared. To this mixed solution, GM 1 (cat. #1061, manufactured by Matreya Co.) was dissolved to make a solution of 50 mM concentration. This lipid mixed solution was aliquoted into glass test tubes and stored at −20° C. until use, was melted before use, was mixed with chloroform/methanol mixture (1:1) and mixed, and then the solvent was removed by applying nitrogen gas to the suspension. The dried lipid mixture was resuspended in PBS to be a GM1 concentration of 2.5 mM, and frozen and thawed 5 times with liquid nitrogen. The lipid suspension was centrifuged at 15,000 rpm for 10 minutes and the precipitate was resuspended in PBS to be a GM1 concentration of 2.5 mM. Using an ultrasonic crusher (XL-2000, MISONIX Co., Ltd.) equipped with a microchip, ultrasonic treatment was repeated on ice for 10 seconds until the suspension became transparent, and GM1-containing liposome was prepared. Immediately prior to use, PBS was added and diluted to a GM 1 concentration of 75 μM.
(3) Preparation of Compound Solution
Compounds 1 to 133 and 142 to 267 were prepared as 10 mM and 2 mM solution in DMSO, respectively. And each solution was diluted to 75 μM or 15 μM with PBS immediately prior to use.
(4) GAβ-Dependent Amyloid Fibril Formation
To a 96-well microplate, 5 μl each of the 75 μM Aβ solution prepared above (1), the compound solution prepared in (3) or 0.75% DMSO was mixed and incubated at room temperature for 10 minutes. Then, 5 μl each of 750 μM GM1-containing liposome prepared in (2) was added to each well and incubated at 37° C. for 18 hours.
ThT (manufactured by Sigma-Aldrich) was adjusted to 5 μM using 50 mM glycine-NaOH buffer (pH 8.5). Immediately before measurement, 10 μl from each well of (4) was transferred to a 96-well black plate. 50 μl of 5 μM ThT solution was added from each injector to each well using a multi-plate reader (ARVO-HTS, manufactured by Perkin Elmer), and then the optimal fluorescence of ThT bound to amyloid fiber (excitation wavelength 430 nm, fluorescence wavelength 490 nm) was measured.
The fluorescence intensity of ThT indicates the degree of amyloid fibrils formation. By calculating the ratio of the ThT fluorescence intensity between addition of the compound and without addition of the compound, the inhibition rate against amyloid fibril formation by the compound was calculated.

[1] = inhibition rate against amyloid fibril formation, final concentration of the compound 25 μM, read-out: Inhibitory activity ABC evaluation
[2] = read-out: ThT Inhibitory activity (% inhibition)
[3] = @25 μM, read-out: ThT Inhibitory activity (% inhibition)

SMILES	inhibition at 25 µM [1] [%]	inhibition at 5 µM [2] [%]	inhibition at 25 µM [3] [%]
C[C@H](O)[C@H](NC(=O)c1ccc(Cl)cc1)c1nc(-c2ccc(OC(F)(F)F)cc2)no1 [Compound 127, 4-chloro-N-((1S,2S)-2-hydroxy-1-(3-(4-(trifluoromethoxy)phenyl)-1,2,4-oxa-diazol-5-yl)propyl) benzamide]	40 to 80	–	–
O=C(N[C@@H](CO)c1nc(-c2ccc(OC(F)(F)F)cc2)no1)c1cccc(Cl)c1 [Compound 63, (S)-3-chloro-N-(2-hydroxy-1-[3-{4-(trifluoro-methoxy)phenyl}-1,2,4-oxadiazol-5-yl]ethyl) benzamide]	> 80	53	99
CNCC(NC(=O)c1ccc(Cl)cc1)c1nnc(-c2ccc(OC(F)(F)F)cc2)o1 (stereo not drawn) [Compound 118, 4-chloro-N-(2-(methylamino)-1-(5-(4-(tri-fluoromethoxy)phenyl)-1,3,4-oxadiazol-2-yl)ethyl)benzamide]	40 to 80	–	72
O=C(NC(CO)c1nc(-c2ccc(C(F)(F)F)cc2)no1)c1cccc2cc[nH]c12 (stereo not drawn) [Compound 184, N-(2-hydroxy-1-{3-[4-(trifluoromethyl)phenyl]-1,2,4-oxadiazol-5-yl}ethyl)-1H-indole-7-carboxamide]	40 to 80	–	–
O=C(Nc1ccc(Cl)cc1)N[C@@H](CO)c1nc(-c2ccc(OC(F)(F)F)cc2)no1 [Compound 95, (S)-1-(4-chloro-phenyl)-3-(2-hydroxy-1-[3-{4-(trifluoromethoxy)phenyl}-1,2,4-oxadiazol-5-yl]ethyl)urea]	< 40	–	–
O=C(N[C@@H](CO)c1nc(-c2ccc(OC(F)(F)F)cc2)no1)c1ccc(F)cc1 [Compound 69, (S)-4-fluoro-N-(2-hydroxy-1-[3-{4-(trifluoro-methoxy)phenyl}-1,2,4-oxadiazol-5-yl]ethyl) benzamide]	> 80	–	87
CS(=O)(=O)Nc1ccc(-c2noc(C3CC(=O)N(c4ccc(Cl)cc4)C3)n2)cc1 (stereo not drawn) [Compound 65, N-(4-[5-{1-(4-chlorophenyl)-5-oxopyrrolidin-3-yl}-1,2,4-oxadiazol-3-yl]phenyl) methane-sulfonamide]	40 to 80	–	–
O=C(/C=C/c1cc(Cl)cc(Cl)c1)NC(CO)c1nc(-c2ccc(C(F)(F)F)cc2)no1 (stereo not drawn) [Compound 191, (2E)-3-(3,5-dichlorophenyl)-N-(2-hydroxy-1-{3-[4-(trifluoromethyl)phenyl]-1,2,4-oxadiazol-5-yl}ethyl)prop-2-enamide]	40 to 80	–	73
O=C(N[C@@H](CO)c1nc(-c2ccc3cc[nH]c3c2)no1)c1ccc(F)cc1 [Compound 250, 4-fluoro-N-[(1S)-2-hydroxy-1-[3-(1H-indol-6-yl)-1,2,4-oxadiazol-5-yl]ethyl]benzamide]	40 to 80	–	–
O=C(c1ccc(Cl)cc1)N(CCO)[C@@H](CO)c1nc(-c2ccc(OC(F)(F)F)cc2)no1 [Compound 96, (S)-4-chloro-N-(2-hydroxy-1-{3-[4-(trifluoromethoxy)phenyl]-1,2,4-oxadiazol-5-yl}ethyl)-N-(2-hydroxyethyl)benzamide]	40 to 80	–	–
O=C(N[C@@H](CO)c1nc(-c2cccc(C(F)(F)F)c2)no1)c1cn2ccccc2n1 [Compound 244, N-[(1S)-2-hydroxy-1-{3-[3-(trifluoromethyl)phenyl]-1,2,4-oxadiazol-5-yl}ethyl]imidazo[1,2-a]pyridine-2-carboxamide]	< 40	–	–
O=C(c1c[nH]c2ccccc12)N1C[C@H](O)C[C@H]1c1nc(-c2ccc(OC(F)(F)F)cc2)no1 [Compound 47, ((2S,4R)-4-hydroxy-2-[3-{4-(trifluoro-methoxy)phenyl}-1,2,4-oxadiazol-5-yl]pyrrolidin-1-yl)(1H-indol-3-yl)methanone]	< 40	–	–
COc1cccc2c(CC(=O)NCCc3nc(-c4c[nH]c5ccccc45)no3)c[nH]c12 [Compound 70, N-[2-{3-(1H-indol-3-yl)-1,2,4-oxadiazol-5-yl}ethyl]-2-(7-methoxy-1H-indol-3-yl) acetamide]	< 40	–	–
O=C(N[C@H](CO)c1nc(-c2ccc(OC(F)(F)F)cc2)no1)c1ccc(Cl)cc1 [Compound 83, (R)-4-chloro-N-(2-hydroxy-1-[3-{4-(trifluoromethoxy)phenyl}-1,2,4-oxadiazol-5-yl]ethyl)benzamide]	> 80	–	–
CS(=O)(=O)Nc1ccc(-c2nnc([C@@H](N)Cc3c[nH]c4ccccc34)o2)cc1 [Compound 111, (S)-N-(4-(5-(1-amino-2-(1H-indol-3-yl)ethyl)-1,3,4-oxadiazol-2-yl)phenyl) methane-sulfonamide hydrochloride]	< 40	–	–
O=C(NCCc1nc(-c2c[nH]c3ccccc23)no1)c1ccc(Cl)cc1 [Compound 71, N-[2-{3-(1H-indol-3-yl)-1,2,4-oxadiazol-5-yl}ethyl]-4-chloro-benzamide]	40 to 80	–	–
O=C(N[C@@H](CO)c1nc(-c2cccc(C(F)(F)F)c2)no1)c1ccc(N2CCCC2)cc1 [Compound 221, N-[(1S)-2-hydroxy-1-{3-[3-(trifluoromethyl)phenyl]-1,2,4-oxadiazol-5-yl}ethyl]-4-(pyrrolidin-1-yl) benzamide]	> 80	–	–
O=C1CC(c2nc(-c3ccc(OC(F)(F)F)cc3)no2)CN1c1ccc(Cl)cc1F (stereo not drawn) [Compound 28, 1-(4-chloro-2-fluorophenyl)-4-[3-{4-(trifluoromethoxy)phenyl}-1,2,4-oxadiazol-5-yl]pyrrolidin-2-one]	40 to 80	–	–
O=C(N[C@@H](CO)c1nc(-c2cc3cc(F)ccc3[nH]2)no1)c1ccc(F)cc1 [Compound 267, 4-fluoro-N-[(1S)-1-[3-(5-fluoro-1H-indol-2-yl)-1,2,4-oxadiazol-5-yl]-2-hydroxyethyl] benzamide]	> 80	–	–
O=C(N[C@@H](CO)c1nc(-c2ccc(C(F)(F)F)cc2)no1)c1ccc2[nH]nnc2c1 [Compound 238, N-[(1S)-2-hydroxy-1-{3-[4-(trifluoromethyl)phenyl]-1,2,4-oxadiazol-5-yl}ethyl]-1H-1,2,3-benzotriazole-5-carboxamide]	40 to 80	–	–
N#Cc1ccc(C(=O)N[C@@H](CO)c2nc(-c3ccc(O)c(F)c3)no2)cc1 [Compound 100, (S)-4-cyano-N-(1-(3-(3-fluoro-4-hydroxyphenyl)-1,2,4-oxadiazol-5-yl)-2-hydroxy-ethyl)benzamide]	40 to 80	–	–
OC(Cc1c[nH]c2ccccc12)c1nc(-c2ccc(OC(F)(F)F)cc2)no1 (stereo not drawn) [Compound 101, 2-(1H-indol-3-yl)-1-{3-[4-(trifluoromethoxy)phenyl]-1,2,4-oxadiazol-5-yl}ethan-1-ol]	> 80	–	87
O=C(N[C@@H](CO)c1nc(-c2c[nH]c3ccc(Cl)cc23)no1)c1ccc(Cl)cc1F [Compound 252, 4-chloro-N-[(1S)-1-[3-(5-chloro-1H-indol-3-yl)-1,2,4-oxadiazol-5-yl]-2-hydroxyethyl]-2-fluorobenzamide]	40 to 80	–	–
O=C1CC(CO)(c2nc(-c3ccc(O)cc3)no2)CN1c1ccc(Cl)cc1 (stereo not drawn) [Compound 72, 1-(4-chloro-phenyl)-4-(hydroxy-methyl)-4-{3-(4-hydroxyphenyl)-1,2,4-oxadiazol-5-yl} pyrrolidin-2-one]	> 80	47	81
CS(=O)(=O)Nc1ccc(-c2nnc([C@H](CO)NC(=O)c3ccc(Cl)cc3)o2)cc1 [Compound 105, (S)-4-chloro-N-(2-hydroxy-1-(5-(4-(methyl-sulfonamido)phenyl)-1,3,4-oxadiazol-2-yl)ethyl)benzamide]	< 40	–	–
